Measurements published in PMC11329504, “Identification of novel small molecule-based strategies of COL7A1 upregulation and readthrough activity for the treatment of recessive dystrophic epidermolysis bullosa” (Scientific Reports, 2024).
Read-outs that look alike come from different tables or passages of the source.

Assays:
A2A = target: T1, A2A (Homo sapiens, UniProt P29274); experiment: Selectivity panel (Eurofins): A2A adenosine receptor; type: binding
T1 construct: Eurofins Pharma Discovery Services
T1 sequence (P29274 whole entry): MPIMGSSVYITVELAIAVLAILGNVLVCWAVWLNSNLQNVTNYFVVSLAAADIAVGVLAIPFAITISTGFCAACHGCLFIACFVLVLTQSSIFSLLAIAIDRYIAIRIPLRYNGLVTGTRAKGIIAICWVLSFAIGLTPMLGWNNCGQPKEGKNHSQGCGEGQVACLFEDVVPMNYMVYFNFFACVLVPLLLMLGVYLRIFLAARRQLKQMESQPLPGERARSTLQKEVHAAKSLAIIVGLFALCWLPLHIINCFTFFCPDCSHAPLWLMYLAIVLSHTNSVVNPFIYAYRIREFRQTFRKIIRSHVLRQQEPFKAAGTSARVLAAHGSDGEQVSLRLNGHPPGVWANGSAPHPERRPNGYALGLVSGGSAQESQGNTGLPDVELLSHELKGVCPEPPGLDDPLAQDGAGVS

SAPK2α = target: T2, SAPK2α (Homo sapiens, UniProt Q16539); experiment: Selectivity panel (Eurofins): p38/SAPK2α kinase; type: biochemical
T2 construct: Eurofins Pharma Discovery Services
T2 sequence (Q16539 whole entry): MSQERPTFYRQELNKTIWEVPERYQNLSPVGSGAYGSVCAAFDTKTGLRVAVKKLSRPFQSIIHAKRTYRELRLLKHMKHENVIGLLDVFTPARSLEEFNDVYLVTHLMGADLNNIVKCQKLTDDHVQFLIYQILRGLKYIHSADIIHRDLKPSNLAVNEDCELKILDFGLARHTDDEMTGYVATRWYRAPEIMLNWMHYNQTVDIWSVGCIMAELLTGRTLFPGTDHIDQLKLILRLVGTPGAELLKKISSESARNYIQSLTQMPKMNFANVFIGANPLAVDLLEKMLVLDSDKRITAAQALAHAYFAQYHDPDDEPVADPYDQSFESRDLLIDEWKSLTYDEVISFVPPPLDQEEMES

BZD = experiment: Selectivity panel (Eurofins): benzodiazepine receptor BZD; type: binding; settings: for % inhibition, BZD: n = 1, duplicate
Kappa (KOP) = experiment: Selectivity panel (Eurofins): Kappa (KOP); type: binding; settings: n = 1, duplicate
Method: Selectivity was evaluated at Eurofins Pharma Discovery Services at 3 µM, 10 µM, and 30 µM in duplicate using a selection of 84 representative kinases and 44 GPCRs, transporters, nuclear receptors (NR), enzymes, and ion channels.

[1] = at concentrations of 3 and 10 µM

## C#Cc1cc(-c2ccncc2)c(-c2cccc(F)c2)nc1N [Compound 7]
A2A; Table 5, read-out: Selectivity % inhibition, A2A
  inhibition at 10 µM: 96%
A2A; at 3 μM, n = 1, duplicate, read-out: % inhibition, A2A
  inhibition at 3 µM: 101%
A2A; n = 1, duplicate, read-out: % inhibition, A2A
  inhibition at 10 µM: 100%
A2A; at 30 μM, n = 1, duplicate, read-out: % inhibition, A2A
  inhibition at 30 µM: 101%
A2A; [1]
  antagonism/inhibition of A2A adenosine receptor: ≥ 50%
SAPK2α; at 3 μM, n = 1, duplicate, read-out: % inhibition, SAPK2α
  inhibition at 3 µM: 90%
SAPK2α; at 10 μM, n = 1, duplicate, read-out: % inhibition, SAPK2α
  inhibition at 10 µM: 103%
SAPK2α; at 30 μM, n = 1, duplicate, read-out: % inhibition, SAPK2α
  inhibition at 30 µM: 107%
SAPK2α; [1]
  antagonism/inhibition of p38/SAPK2α kinase: ≥ 50%
BZD; at 3 μM
  % inhibition, BZD: 48%
BZD; at 10 μM
  % inhibition, BZD: 73%
BZD; at 30 μM
  % inhibition, BZD: 88%
BZD; [1]
  antagonism/inhibition of benzodiazepine receptor BZD: ≥ 50%
Kappa (KOP); at 3 μM
  % inhibition, Kappa (KOP): 12%
Kappa (KOP); at 10 μM
  % inhibition, Kappa (KOP): 32%
Kappa (KOP); at 30 μM
  % inhibition, Kappa (KOP): 54%
